Data taken from patent publication US11382956B2, “Amylin analogues” (Zealand Pharma A/S, priority 2016, dated 2022).
Numbered stars: 1 amine (or outer) side, 2 acyl side, 3 side chain; on linkers, the order of the positions; unused ones are H or OH. Bridge positions count the residues as written; N and C are the ends. Square brackets hold non-standard residues; d marks the D form. Peptide text beside a SMILES is read from it. * marks the point of attachment. C20 diacid = O=C(O)CCCCCCCCCCCCCCCCCCC(=O)*; γGlu = O=C(O)[C@H](CCC(=O)[*:2])N[*:1]; Hyp = O=C(O)[C@@H]1C[C@@H](O)CN1; NMeI = CC[C@H](C)[C@H](NC)C(=O)O; Aad = N[C@@H](CCCC(=O)O)C(=O)O; Orn = NCCC[C@H](N)C(=O)O; Sar = CNCC(=O)O

Assays:
[1] = molecular target: T1, recombinant human calcitonin receptor (hCT-R) (Homo sapiens, UniProt P30988); assay: hCT-R cAMP assay (AlphaScreen) in 1321N1 cells; format: cell-based; settings: cAMP formation, 45 min stimulation
T1 construct: host or cells: human astrocytoma cell line 1321N1
T1 sequence (P30988 25-474): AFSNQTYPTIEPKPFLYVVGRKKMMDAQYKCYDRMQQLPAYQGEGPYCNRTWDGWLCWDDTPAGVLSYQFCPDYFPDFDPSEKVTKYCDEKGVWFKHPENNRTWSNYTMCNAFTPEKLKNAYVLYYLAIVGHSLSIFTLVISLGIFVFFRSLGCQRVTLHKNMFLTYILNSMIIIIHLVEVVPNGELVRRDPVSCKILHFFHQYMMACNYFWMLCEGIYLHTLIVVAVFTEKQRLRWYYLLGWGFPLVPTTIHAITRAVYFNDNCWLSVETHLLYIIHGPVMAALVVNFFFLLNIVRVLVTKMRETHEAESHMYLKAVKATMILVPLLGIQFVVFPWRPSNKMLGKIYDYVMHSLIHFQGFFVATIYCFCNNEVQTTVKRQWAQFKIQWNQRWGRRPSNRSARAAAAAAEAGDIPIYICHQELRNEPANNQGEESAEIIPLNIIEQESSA
Excerpt: (§1) For the assessment of the in vitro activity of test peptides, cell lines expressing recombinant human calcitonin receptor (hCT-R) or recombinant human amylin 3 receptor (hAMYR3) in the background of the human astrocytoma cell line 1321N1 were purchased from DiscoveRx Corporation (Cat. No. 95-016106 and 95-0166C6). The hAMYR3 is a hetero-oligomer of the calcitonin receptor (Isoform 2; Gene ID 799) and RAMPS (Gene ID 10268) that forms when both genes are expressed in the same cell. The hCT-R cell line expresses only the recombinant human calcitonin receptor gene (Isoform 2; Gene ID 799). Upon activation of hCT-R or hAMYR3 by the test peptides the formation of cAMP is induced and was measured using the AlphaScreen® cAMP Assay kit from Perkin-Elmer (Cat. No. 6760635R).
(§2) Briefly, 1321N1 cells expressing hCT-R or hAMYR3 were seeded in 384-well microtiter plates (Falcon Optilux White, Cat.-No. 10448642) at 5,000 cells in […] growth medium per well (AssayComplete 1321N1 Cell Culture Kit, DiscoveRx Corp.), and incubated for 24 h at 37° C., 5% CO2. On the day of analysis growth medium was removed and the cells were stimulated by adding 10 μL of stimulation buffer (10 […], 0.1% BSA) containing increasing concentrations of test peptides, and incubation for 45 min at room temperature. The stimulation was stopped by adding 5.6 μL/well donor bead detection mix (5 mM Hepes pH7.4, 0.5% TWEEN 20, 0.1% BSA, 0.05 mg/mL donor beads, 62.5 nM biotinylated cAMP) and 4.5 μL/well acceptor bead solution (5 mM Hepes pH7.4, 0.5% TWEEN 20, 0.1% BSA, 0.05 mg/mL acceptor beads). After thorough mixing the plates were incubated in the dark for 1 h at room temperature and the cAMP content of the resulting cell lysates was estimated according to the AlphaScreen® cAMP Assay manufacturer's instructions. EC50 values were estimated by computer-aided curve fitting of results of at least 7 different compound concentrations.

[2] = molecular target: T2, recombinant human amylin 3 receptor (hAMYR3) (Homo sapiens, UniProt O60896+P30988); assay: hAMYR3 cAMP assay (AlphaScreen) in 1321N1 cells; format: cell-based; settings: cAMP formation, 45 min stimulation
T2 construct: host or cells: human astrocytoma cell line 1321N1
T2 sequence (P30988 25-474): T1 sequence (P30988 25-474)
T2 sequence (O60896 24-148 partner): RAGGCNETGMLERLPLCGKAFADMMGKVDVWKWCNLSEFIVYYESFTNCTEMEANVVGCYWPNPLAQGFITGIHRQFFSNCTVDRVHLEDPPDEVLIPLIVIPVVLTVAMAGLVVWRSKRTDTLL
Excerpt: as §1, §2

Row | Structure (SMILES) | EC50 [1] [nM] | EC50 [2] [nM]
1 | CC[C@H](C)[C@@H](C(=O)N[C@@H](CC(C)C)C(=O)N[C@@H](CO)C(=O)N[C@@H](CO)C(=O)N[C@H](C(=O)N[C@@H](CCC(=O)O)C(=O)N[C@H](C(=O)NCC(=O)N[C@@H](CO)C(=O)N[C@@H](CC(N)=O)C(=O)N[C@H](C(=O)N1C[C@H](O)C[C@H]1C(N)=O)[C@@H](C)O)C(C)C)[C@@H](C)O)N(C)C(=O)[C@H](C)NC(=O)CN(C)C(=O)[C@H](Cc1ccccc1)NC(=O)[C@@H](NC(=O)[C@@H](NC(=O)[C@H](CCCNC(=N)N)NC(=O)[C@H](CCC(N)=O)NC(=O)[C@H](CC(C)C)NC(=O)[C@H](Cc1ccccc1)NC(=O)[C@H](CCCC(=O)O)NC(=O)[C@H](C)NC(=O)[C@H](CC(C)C)NC(=O)[C@H](CCCNC(=N)N)NC(=O)[C@H](CCC(=O)O)NC(=O)[C@@H](NC(=O)[C@H](C)NC(=O)[C@@H]1CCCNC(=O)C[C@H](NC(=O)[C@H](CCCNC(=N)N)NC(=O)CC[C@H](NC(=O)CCCCCCCCCCCCCCCCCCC(=O)O)C(=O)O)C(=O)NCC(=O)N[C@@H]([C@@H](C)O)C(=O)N[C@@H](C)C(=O)N[C@@H]([C@@H](C)O)C(=O)N1)[C@@H](C)O)[C@@H](C)O)[C@@H](C)O [Compound 23, [19CD]-isoGlu-RD()GTAT-Orn()-ATERLA-Aad-FLQRTTF-Gly(Me)-A-Ile(Me)-LSSTEVGSNT-Hyp-NH2] ({C20 diacid-γGlu}-RDGTAT[Orn]ATERLA[Aad]FLQRTTF[Sar]A[NMeI]LSSTEVGSNT[Hyp]-NH2; lactam 2-7) | 1.93 | 0.706
2 | CC[C@H](C)[C@@H](C(=O)N1CCC[C@H]1C(=O)N[C@@H](CO)C(=O)N[C@@H](CO)C(=O)N[C@H](C(=O)N[C@@H](CCC(=O)O)C(=O)N[C@H](C(=O)NCC(=O)N[C@@H](CO)C(=O)N[C@@H](CC(N)=O)C(=O)N[C@H](C(=O)N1C[C@H](O)C[C@H]1C(N)=O)[C@@H](C)O)C(C)C)[C@@H](C)O)N(C)C(=O)[C@H](C)NC(=O)CN(C)C(=O)[C@H](Cc1ccccc1)NC(=O)[C@@H](NC(=O)[C@@H](NC(=O)[C@H](CCCNC(=N)N)NC(=O)[C@H](CCC(N)=O)NC(=O)[C@H](CC(C)C)NC(=O)[C@H](Cc1ccccc1)NC(=O)[C@H](CCCC(=O)O)NC(=O)[C@H](C)NC(=O)[C@H](CC(C)C)NC(=O)[C@H](CCCNC(=N)N)NC(=O)[C@H](CCC(=O)O)NC(=O)[C@@H](NC(=O)[C@H](C)NC(=O)[C@@H]1CCCNC(=O)C[C@H](NC(=O)[C@H](CCCNC(=N)N)NC(=O)CC[C@H](NC(=O)CCCCCCCCCCCCCCCCCCC(=O)O)C(=O)O)C(=O)NCC(=O)N[C@@H]([C@@H](C)O)C(=O)N[C@@H](C)C(=O)N[C@@H]([C@@H](C)O)C(=O)N1)[C@@H](C)O)[C@@H](C)O)[C@@H](C)O [Compound 24, [19CD]-isoGlu-RD()GTAT-Orn()-ATERLA-Aad-FLQRTTF-Gly(Me)-A-Ile(Me)-PSSTEVGSNT-Hyp-NH2] ({C20 diacid-γGlu}-RDGTAT[Orn]ATERLA[Aad]FLQRTTF[Sar]A[NMeI]PSSTEVGSNT[Hyp]-NH2; lactam 2-7) | 0.038 | 0.013
3 | CC[C@H](C)[C@@H](C(=O)N[C@@H](CC(C)C)C(=O)N[C@@H](CO)C(=O)N[C@@H](CO)C(=O)N[C@H](C(=O)N[C@@H](CCC(=O)O)C(=O)N[C@H](C(=O)NCC(=O)N[C@@H](CO)C(=O)N[C@@H](CC(N)=O)C(=O)N[C@H](C(=O)N1C[C@H](O)C[C@H]1C(N)=O)[C@@H](C)O)C(C)C)[C@@H](C)O)N(C)C(=O)[C@H](C)NC(=O)CN(C)C(=O)[C@H](Cc1ccccc1)NC(=O)[C@H](C)NC(=O)[C@H](C)NC(=O)[C@H](CCCNC(=N)N)NC(=O)[C@H](CCC(N)=O)NC(=O)[C@H](CC(C)C)NC(=O)[C@H](Cc1ccccc1)NC(=O)[C@H](CCCC(=O)O)NC(=O)[C@H](C)NC(=O)[C@H](CC(C)C)NC(=O)[C@H](CCCNC(=N)N)NC(=O)[C@H](CCC(=O)O)NC(=O)[C@@H](NC(=O)[C@H](C)NC(=O)[C@@H]1CCCNC(=O)C[C@H](NC(=O)[C@H](CCCNC(=N)N)NC(=O)CC[C@H](NC(=O)CCCCCCCCCCCCCCCCCCC(=O)O)C(=O)O)C(=O)NCC(=O)N[C@@H]([C@@H](C)O)C(=O)N[C@@H](C)C(=O)N[C@@H]([C@@H](C)O)C(=O)N1)[C@@H](C)O [Compound 26, [19CD]-isoGlu-RD()GTAT-Orn()-ATERLA-Aad-FLQRAAF-Gly(Me)-A-Ile(Me)-LSSTEVGSNT-Hyp-NH2] ({C20 diacid-γGlu}-RDGTAT[Orn]ATERLA[Aad]FLQRAAF[Sar]A[NMeI]LSSTEVGSNT[Hyp]-NH2; lactam 2-7) | 0.769 | 0.12
4 | CC[C@H](C)[C@@H](C(=O)N[C@@H](CC(C)C)C(=O)N[C@@H](CO)C(=O)N[C@@H](CO)C(=O)N[C@H](C(=O)N[C@@H](CCC(=O)O)C(=O)N[C@H](C(=O)NCC(=O)N[C@@H](CO)C(=O)N[C@@H](CC(N)=O)C(=O)N[C@H](C(=O)N1C[C@H](O)C[C@H]1C(N)=O)[C@@H](C)O)C(C)C)[C@@H](C)O)N(C)C(=O)[C@H](C)NC(=O)CN(C)C(=O)[C@H](Cc1ccccc1)NC(=O)[C@@H](NC(=O)CNC(=O)[C@H](CCCNC(=N)N)NC(=O)[C@H](CCC(N)=O)NC(=O)[C@H](CC(C)C)NC(=O)[C@H](Cc1ccccc1)NC(=O)[C@H](CCCC(=O)O)NC(=O)[C@H](C)NC(=O)[C@H](CC(C)C)NC(=O)[C@H](CCCNC(=N)N)NC(=O)[C@H](CCC(=O)O)NC(=O)[C@@H](NC(=O)[C@H](C)NC(=O)[C@@H]1CCCNC(=O)C[C@H](NC(=O)[C@H](CCCNC(=N)N)NC(=O)CC[C@H](NC(=O)CCCCCCCCCCCCCCCCCCC(=O)O)C(=O)O)C(=O)N[C@@H](CCC(N)=O)C(=O)N[C@@H]([C@@H](C)O)C(=O)N[C@@H](C)C(=O)N[C@@H]([C@@H](C)O)C(=O)N1)[C@@H](C)O)[C@@H](C)O [Compound 28, [19CD]-isoGlu-RD()QTAT-Orn()-ATERLA-Aad-FLQRGTF-Gly(Me)-A-Ile(Me)-LSSTEVGSNT-Hyp-NH2] ({C20 diacid-γGlu}-RDQTAT[Orn]ATERLA[Aad]FLQRGTF[Sar]A[NMeI]LSSTEVGSNT[Hyp]-NH2; lactam 2-7) | 1.23 | 0.268
5 | CC[C@H](C)[C@@H](C(=O)N[C@@H](CC(C)C)C(=O)N[C@@H](CO)C(=O)N[C@@H](CO)C(=O)N[C@H](C(=O)N[C@@H](CCC(=O)O)C(=O)N[C@H](C(=O)NCC(=O)N[C@@H](CO)C(=O)N[C@@H](CC(N)=O)C(=O)N[C@H](C(=O)N1C[C@H](O)C[C@H]1C(N)=O)[C@@H](C)O)C(C)C)[C@@H](C)O)N(C)C(=O)[C@H](C)NC(=O)CN(C)C(=O)[C@H](Cc1ccccc1)NC(=O)[C@H](CO)NC(=O)[C@H](CO)NC(=O)[C@H](CCCNC(=N)N)NC(=O)[C@H](CCC(N)=O)NC(=O)[C@H](CC(C)C)NC(=O)[C@H](Cc1ccccc1)NC(=O)[C@H](CCCC(=O)O)NC(=O)[C@H](C)NC(=O)[C@H](CC(C)C)NC(=O)[C@H](CCCNC(=N)N)NC(=O)[C@H](CCC(=O)O)NC(=O)[C@@H](NC(=O)[C@H](C)NC(=O)[C@@H]1CCCCNC(=O)C[C@H](NC(=O)[C@H](CCCNC(=N)N)NC(=O)CC[C@H](NC(=O)CCCCCCCCCCCCCCCCCCC(=O)O)C(=O)O)C(=O)N2CCC[C@H]2C(=O)N[C@@H]([C@@H](C)O)C(=O)N[C@@H](C)C(=O)N[C@@H]([C@@H](C)O)C(=O)N1)[C@@H](C)O [Compound 29, [19CD]-isoGlu-RD()PTATK()ATERLA-Aad-FLQRSSF-Gly(Me)-A-Ile(Me)-LSSTEVGSNT-Hyp-NH2] ({C20 diacid-γGlu}-RDPTATKATERLA[Aad]FLQRSSF[Sar]A[NMeI]LSSTEVGSNT[Hyp]-NH2; lactam 2-7) | 1.07 | 0.312
